Assay [1] has as its target GDP-bound NRAS wild-type protein (Homo sapiens, UniProt P01111). As to the kind of experiment: Binding to NRAS by surface plasmon resonance (SPR), Single Cycle Kinetics.
Assay [2] addresses GDP-bound HRAS wild-type protein (Homo sapiens, UniProt P01112). As to the kind of experiment: Binding to HRAS by surface plasmon resonance (SPR), Single Cycle Kinetics.
Setting [3] is: KD ratio NRAS/KRAS, class symbols.
The mark [4] stands for this setting: KD ratio HRAS/KRAS, class symbols.

*1 amine or outer side, *2 acyl side, *3 side chain or, on linkers, in order; H or OH if unused. Where a SMILES comes first, the peptide text is derived from it. Bridges are numbered along the chain shown (N, C = ends). [ ]: non-standard residue; d: D form. The star is where a group is joined. hPhe(3-Cl-4-CF3) = N[C@@H](CCc1ccc(C(F)(F)F)c(Cl)c1)C(=O)O; X28 = C#CCN([C@@H](Cc1ccc(C(F)(F)F)cc1)C(=O)[*:2])[*:1]; NMeGly(cPent) = CN[C@H](C(=O)O)C1CCCC1; NMeD = CN[C@@H](CC(=O)O)C(=O)O; NMeL = CN[C@@H](CC(C)C)C(=O)O; Morpholide = C1CN(*)CCO1; Ac5c = NC1(C(=O)O)CCCC1; Sar = CNCC(=O)O

Sequence of GDP-bound NRAS wild-type protein (P01111 whole entry): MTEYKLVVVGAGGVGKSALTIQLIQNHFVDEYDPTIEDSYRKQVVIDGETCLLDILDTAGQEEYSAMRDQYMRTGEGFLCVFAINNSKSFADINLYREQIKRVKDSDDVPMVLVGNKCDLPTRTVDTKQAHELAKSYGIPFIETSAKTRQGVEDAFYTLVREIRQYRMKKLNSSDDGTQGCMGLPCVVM
Sequence of GDP-bound HRAS wild-type protein (P01112 whole entry): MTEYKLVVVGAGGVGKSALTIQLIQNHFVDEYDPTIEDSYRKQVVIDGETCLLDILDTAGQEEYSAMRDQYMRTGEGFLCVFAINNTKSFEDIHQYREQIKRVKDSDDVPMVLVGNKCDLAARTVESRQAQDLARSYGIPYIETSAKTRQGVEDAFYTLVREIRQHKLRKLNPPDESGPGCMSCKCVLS

As to `CCCOC[C@H]1C(=O)N[C@@H]([C@@H](C)CC)C(=O)N(C)CC(=O)N(C)[C@H]2C/C=C\CCN(C2=O)[C@@H](Cc2ccc(C(F)(F)F)cc2)C(=O)N(C)CC(=O)N[C@@H](CCc2ccc(C(F)(F)F)c(OC)c2)C(=O)N2C[C@H](OCC)C[C@H]2C(=O)NC2(CCC2)C(=O)N(C)[C@@H](C2CCCC2)C(=O)N(C)[C@H](C(=O)N(C)CC)CC(=O)N1C` [PP2016], the “NRAS/KRAS (ratio of KD value for NRAS to KD value for KRAS)” value in assay [1] (KD ratio, GDP-bound NRAS wild-type vs GDP-bound KRAS wild-type, SPR) is “A (a compound having 10 or more and less than 20 is denoted as A)”. In addition, the “HRAS/KRAS (ratio of KD value for HRAS to KD value for KRAS)” value in assay [2] (KD ratio, GDP-bound HRAS wild-type vs GDP-bound KRAS wild-type, SPR) is “A (a compound having 10 or more and less than 20 is denoted as A)”.
For `CCOC[C@H]1C(=O)N[C@@H]([C@@H](C)OCC)C(=O)N2CCC[C@H]2C(=O)N(C)[C@H]2C/C=C\CCN(C2=O)[C@@H](Cc2ccc(C)cc2)C(=O)N(C)CC(=O)N[C@@H](CCc2ccc(C(F)(F)F)c(OC)c2)C(=O)N2C[C@@H](C)C[C@H]2C(=O)NC2(CC(C)(C)C2)C(=O)N(C)[C@@H](C2CCCC2)C(=O)N(C)[C@H](C(=O)N(C)CC)CC(=O)N1C` [PP2433], in assay [1] (SPR, GDP-bound NRAS wild-type vs GDP-bound KRAS wild-type), the “NRAS/KRAS (ratio of KD value with respect to NRAS to KD value with respect to KRAS)” value is listed as “AA (a compound having 20 or more is denoted as AA)”. The “HRAS/KRAS (ratio of KD value with respect to HRAS to KD value with respect to KRAS)” value in assay [2] (SPR, GDP-bound HRAS wild-type vs GDP-bound KRAS wild-type) is “A (a compound having 10 or more and less than 20 is denoted as A)”.
`CCC(CC)[C@H]1C(=O)N(C)[C@H](C(=O)N(C)C)CC(=O)N(C)[C@@H](COC)C(=O)N[C@@H]([C@@H](C)CC)C(=O)N2CCC[C@H]2C(=O)N(C)[C@H]2C/C=C\CCN(C2=O)[C@@H](Cc2ccc(C(F)(F)F)cc2)C(=O)N(C)CC(=O)N[C@@H](CCc2ccc(Cl)c(Cl)c2)C(=O)N2C[C@H](OC3CCCC3)C[C@H]2C(=O)NC2(CC(C)(C)C2)C(=O)N1C` [PP2651]: the “NRAS/KRAS (ratio of KD value with respect to GDP-bound NRAS wild-type protein to KD value with respect to KRAS)” value in assay [1] (setting [3]) is “AA (a compound having 20 or more is denoted as AA)”. Also, the “HRAS/KRAS (ratio of KD value with respect to GDP-bound HRAS wild-type protein to KD value with respect to KRAS)” value in assay [2] (setting [4]) was “A (a compound having 10 or more and less than 20 is denoted as A)”.
As for `CCCOC[C@H]1C(=O)N[C@@H]([C@@H](C)CC)C(=O)N(C)CC(=O)N(C)[C@H]2C/C=C\CCN(C2=O)[C@@H](Cc2ccc(C)cc2)C(=O)N(C)CC(=O)N[C@@H](CCc2cc(F)c(C(F)(F)F)c(F)c2)C(=O)N2C[C@H](OCC)C[C@H]2C(=O)NC2(CC(C)(C)C2)C(=O)N(C)[C@@H](CC(C)(C)C)C(=O)N(C)[C@H](C(=O)N(C)C)CC(=O)N1C` [PP2708], the “NRAS/KRAS (ratio of KD value with respect to GDP-bound NRAS wild-type protein to KD value with respect to KRAS)” value in assay [1] (setting [3]) was “A (a compound having 10 or more and less than 20 is denoted as A)”. In assay [2] (setting [4]), the “HRAS/KRAS (ratio of KD value with respect to GDP-bound HRAS wild-type protein to KD value with respect to KRAS)” value was “A (a compound having 10 or more and less than 20 is denoted as A)”.
Turning to `CC[C@H](C)[C@@H]1NC(=O)[C@H](CC(C)C)N(C)C(=O)C[C@@H](C(=O)N2CCOCC2)N(C)C(=O)[C@H](C2CCCC2)N(C)C(=O)C2(CC(F)(F)C2)NC(=O)[C@@H]2CCCN2C(=O)[C@H](CCc2cc(F)c(C(F)(F)F)c(F)c2)NC(=O)CN(C)C(=O)[C@H](Cc2ccc(C(F)(F)F)cc2)N2CCCCC[C@@H](C2=O)N(C)C(=O)CN(C)C1=O` [PP0499], in assay [1] (KD ratio NRAS/KRAS, SPR), the “NRAS/KRAS (ratio of KD value with respect to GDP-bound NRAS wild-type protein to KD value with respect to KRAS)” value was “B (a compound having 3 or more and less than 10 is denoted as B)”. In addition, the “HRAS/KRAS (ratio of KD value with respect to GDP-bound HRAS wild-type protein to KD value with respect to KRAS)” value in assay [2] (KD ratio HRAS/KRAS, SPR) is “B (a compound having 3 or more and less than 10 is denoted as B)”.
Take `CCC[C@H]1C(=O)N[C@@H]([C@@H](C)CC)C(=O)N(C)CC(=O)N(C)[C@H]2C/C=C\CCN(C2=O)[C@@H](Cc2ccc(C(F)(F)F)cc2)C(=O)N(C)CC(=O)N[C@@H](CCc2ccc3c(C)cn(C)c3c2)C(=O)N2C[C@H](OCC)C[C@H]2C(=O)NC2(CC(C)(C)C2)C(=O)N(C)[C@@H](C2CCCC2)C(=O)N(C)[C@H](C(=O)N(C)C)CC(=O)N1C` [PP2897]: the “NRAS/KRAS (ratio of KD value with respect to GDP-bound NRAS wild-type protein to KD value with respect to KRAS)” value in assay [1] (setting [3]) is “A (a compound having 10 or more and less than 20 is denoted as A)”. Also, the “HRAS/KRAS (ratio of KD value with respect to GDP-bound HRAS wild-type protein to KD value with respect to KRAS)” value in assay [2] (setting [4]) is “B (a compound having 3 or more and less than 10 is denoted as B)”.
For the compound `C#CCN1C(=O)CN(C)C(=O)CN(C)C(=O)[C@H]([C@@H](C)CC)NC(=O)[C@H](CC(C)C)N(C)C(=O)C[C@@H](C(=O)N2CCOCC2)N(C)C(=O)[C@H](C2CCCC2)N(C)C(=O)C2(CCCC2)NC(=O)[C@@H]2CCCN2C(=O)[C@H](CCc2ccc(C(F)(F)F)c(Cl)c2)NC(=O)CN(C)C(=O)[C@@H]1Cc1ccc(C(F)(F)F)cc1` [PP0130] ([NMeL]I[Sar][Sar][X28][Sar][hPhe(3-Cl-4-CF3)]P[Ac5c][NMeGly(cPent)][NMeD]-Morpholide; lactam N-11), the “NRAS/KRAS (ratio of KD for GDP-bound NRAS wild-type to KD for KRAS)” value in assay [1] (KD ratio NRAS/KRAS, SPR) was “C (A compound having a KD ratio of 0.1 or more and less than 3 is denoted as C)”. Besides, the “HRAS/KRAS (ratio of KD for GDP-bound HRAS wild-type to KD for KRAS)” value in assay [2] (KD ratio HRAS/KRAS, SPR) was “C (A compound having a KD ratio of 0.1 or more and less than 3 is denoted as C)”.

Source of the values: patent US20250230193A1, “CYCLIC COMPOUND HAVING SELECTIVE KRAS INHIBITORY EFFECT ON HRAS AND NRAS” (CHUGAI SEIYAKU KABUSHIKI KAISHA, priority 2022, published 2025).
